In patent US20170183644A1, “DRUG COCKTAIL ANALYSES USING MICROSCALE VORTEX ASSISTED ELECTROPORATION” (President and Fellows of Harvard College, priority 2014, published 2017):
pIC50: −log10 of the molar value. Values belong to the compound of their own block, whether it stands above or below them.

Assays:
MDA-MB-231 cells [1] = test: Conventional well-plate drug screening assay, CellTiter-Glo cell viability; format: cell-based; details: for effect on cell viability as a single agent: conventional assay
Protocol: These cells were incubated in a humidified incubator at 37° C. with 0% CO2 environment. Cells were harvested for experiments 2 days after the seeding by treating them with 0.25% trypsin-EDTA for 2 minutes. […] Conventional drug screening assays utilizing well-plates were conducted in parallel to evaluate the performance of the proposed microfluidic system. […] For control experiments using the conventional method, the concentrations of drugs were determined such that cells would be exposed in a well plate for 24 hours to the drug amount that is identical to those used for the microfluidic counterpart. […] The CellTiter-Glo Luminescent Cell Viability Assay (Promega, USA) was used to determine the cytotoxicity of tested drugs. First, the correlation between the luminescent intensity and the number of viable cells for the tested cell line was established from luminescence measurements from 96 well plates containing known-quantity of viable cells (LuMate, Model 4400) (see ESI FIG. 2 for calibration curve). For cytotoxicity studies on cells treated with the drugs, all cells present in the well, regardless their viability, were manually counted prior to adding the CellTiter-Glo reagent to the well. The number of viable cells was determined by identifying the corresponding number of viable cells represented by the measured luminescent intensity from the calibration curve. Viability was determined by taking the ratio between the number of viable cells and the total number of treated cells presented in the well.

MDA-MB-231 cells [2] = test: Microfluidic vortex-assisted electroporation drug screening assay, CellTiter-Glo cell viability; format: cell-based; details: for effect on cell viability as a single agent: microfluidic assay; for pIC50: microfluidic electroporation, single agent, read-out: Proposed IC50
Protocol: These cells were incubated in a humidified incubator at 37° C. with […] environment. Cells were harvested for experiments 2 days after the seeding by treating them with 0.25% trypsin-EDTA for 2 minutes. The cells were pelleted by centrifuging for 5 minutes at 200×g and resuspended in the growth media to have a final concentration of 5×10^5 cells/mL. The system utilized the pneumatic flow control unit and the electrical equipment that we previously developed. Their detailed specifications and visualized operational protocols (Yun et al., 2013; Vickers et al., 2014) can be found elsewhere. In brief, the flow control unit independently and promptly pressurizes individual solution vials for rapid solution exchanges through the microfluidic system while the electrical equipment generates high-voltage short pulses across the electroporation chambers on demand. […] Solution vials, individually containing cells, drugs and a growth media for flushing, were mounted into the pneumatic flow control unit, and PEEK tubes from each vial inserted into designated inlet ports in the microfluidic electroporator. The system was flushed with the growth media at the operating pressure of 40 psi (equivalent to a flow rate of 400 μL/minute) for 90 seconds prior to the target cell injection step in order to prime the flow speed required for cell trapping (Hur et al., 2011). Once the desired size and number distribution of trapped cells were attained in each cell trapping vortex, not-trapped cells were removed from the device by switching the active solution port from the cell solution to the flush solution. […] The magnitude, V, the width, Kt, and the frequency of applied electrical pulses were monitored in real-time using an oscilloscope (Agilent, USA). Drug delivery doses were varied by exposing trapped cells to a single drug for incubation durations of 30, 60 and 120 seconds in continuous flow. For dual drug delivery tests, trapped cells were sequentially incubated in individual drugs with various dosage combinations by systematically changing treatment duration ratios of two drugs (e.g., 30:30 seconds, 30:60 seconds or 30:120 seconds). Upon completion of the drug delivery process, treated cells were suspended in the growth media and released from the device for downstream analysis by lowering the operating pressure to 30 psi. Collected cells were seeded in 96 well plates and cultured for 24 to 48 hours prior to the cytotoxicity assays. […] Conventional drug screening assays utilizing well-plates were conducted in parallel to evaluate the performance of the proposed microfluidic system. […] For control experiments using the conventional method, the concentrations of drugs were determined such that cells would be exposed in a well plate for 24 hours to the drug amount that is identical to those used for the microfluidic counterpart. […] The CellTiter-Glo Luminescent Cell Viability Assay (Promega, USA) was used to determine the cytotoxicity of tested drugs. First, the correlation between the luminescent intensity and the number of viable cells for the tested cell line was established from luminescence measurements from 96 well plates containing known-quantity of viable cells (LuMate, Model 4400) (see ESI FIG. 2 for calibration curve). For cytotoxicity studies on cells treated with the drugs, all cells present in the well, regardless their viability, were manually counted prior to adding the CellTiter-Glo reagent to the well. The number of viable cells was determined by identifying the corresponding number of viable cells represented by the measured luminescent intensity from the calibration curve. Viability was determined by taking the ratio between the number of viable cells and the total number of treated cells presented in the well.

[3] = system: MC38 colon cancer cell line; details: MC38 colon cancer cell line (Kuriyoma et al., 2000); read-out: Literature IC50; cited from earlier work
MDA-MB-231 = MDA-MB-231 (Akbos et al., 2005); read-out: Literature IC50; cited from earlier work
Ca-27 squamous carcinoma = Ca-27 squamous carcinoma (Wang et al., 2012); read-out: Literature IC50; cited from earlier work
[4] = Homo sapiens, MDA-MB-231, well plate, single agent, read-out: Conventional IC50

Compound: O=c1c(O)c(-c2ccc(O)c(O)c2)oc2cc(O)cc(O)c12 [quercetin]
- effect on cell viability as a single agent (MDA-MB-231 cells [1]; single agent): negligible and dose independent
- effect on cell viability as a single agent (MDA-MB-231 cells [1]; single agent, listed as Quercetin): negligible cytotoxic effect
- effect on cell viability as a single agent (MDA-MB-231 cells [2]): negligible and dose independent
- effect on cell viability as a single agent (MDA-MB-231 cells [2]; listed as Quercetin): negligible cytotoxic effect

Compound: bleomycin
- pIC50 (MDA-MB-231 cells [1]; FIG. 2 legend, values match conventional assay, read-out: IC50 (FIG. 2 legend)): 4.52
- pIC50 (MDA-MB-231 cells [1]; well plate, single agent, read-out: Conventional IC50): 4.70
- pIC50 [3]: 4.92
- pIC50 (MDA-MB-231 cells [2]): 6.92

- pIC50 (MDA-MB-231 cells [1]; Homo sapiens, MDA-MB-231, FIG. 2 legend, values match conventional assay, read-out: IC50 (FIG. 2 legend)): 5.70
- pIC50 (MDA-MB-231 cells [1]; [4]): 5.70
- pIC50 (MDA-MB-231 cells [2]; Homo sapiens, MDA-MB-231): 5.92
Compound: CC[C@@]1(O)C(=O)OCc2c1cc1n(c2=O)Cc2cc3c(CN(C)C)c(O)ccc3nc2-1 [Topotecan, topotecan]
- pIC50 (MDA-MB-231): 5.96
- effect on cell viability as a single agent (MDA-MB-231 cells [1]; single agent): dose-dependently reduced survival
- effect on cell viability as a single agent (MDA-MB-231 cells [2]): dose-dependently reduced survival

- pIC50 (MDA-MB-231 cells [1]; Homo sapiens, MDA-MB-231, FIG. 2 legend, value matches conventional assay, read-out: IC50 (FIG. 2 legend)): 2.70
- pIC50 (MDA-MB-231 cells [1]; [4]): 2.70
- pIC50 (MDA-MB-231 cells [2]; Homo sapiens, MDA-MB-231): 3.52
Compound: Nc1ccn([C@@H]2O[C@H](CO)[C@@H](O)C2(F)F)c(=O)n1 [Gemcitabine, gemcitabine]
- pIC50 (Ca-27 squamous carcinoma): 3.47
